Measured values as given in patent US11547102B2, “Method for screening saltiness enhancer using saltiness receptor” (NISSIN FOODS HOLDINGS CO., LTD., priority 2017, dated 2023).

Columns and labels:
human TMC4 (hTMC4) = molecular target: T1, human TMC4 (hTMC4) (Homo sapiens, UniProt Q7Z404); assay: whole cell patch clamp assay using HEK293T cells expressing hTMC4; format: cell-based; details: 100 μM added to vehicle solution (134 mM NaCl), same cells compared
T1 construct: host or cells: HEK293T
T1 sequence (Q7Z404 1-706 isoform Q7Z404-1): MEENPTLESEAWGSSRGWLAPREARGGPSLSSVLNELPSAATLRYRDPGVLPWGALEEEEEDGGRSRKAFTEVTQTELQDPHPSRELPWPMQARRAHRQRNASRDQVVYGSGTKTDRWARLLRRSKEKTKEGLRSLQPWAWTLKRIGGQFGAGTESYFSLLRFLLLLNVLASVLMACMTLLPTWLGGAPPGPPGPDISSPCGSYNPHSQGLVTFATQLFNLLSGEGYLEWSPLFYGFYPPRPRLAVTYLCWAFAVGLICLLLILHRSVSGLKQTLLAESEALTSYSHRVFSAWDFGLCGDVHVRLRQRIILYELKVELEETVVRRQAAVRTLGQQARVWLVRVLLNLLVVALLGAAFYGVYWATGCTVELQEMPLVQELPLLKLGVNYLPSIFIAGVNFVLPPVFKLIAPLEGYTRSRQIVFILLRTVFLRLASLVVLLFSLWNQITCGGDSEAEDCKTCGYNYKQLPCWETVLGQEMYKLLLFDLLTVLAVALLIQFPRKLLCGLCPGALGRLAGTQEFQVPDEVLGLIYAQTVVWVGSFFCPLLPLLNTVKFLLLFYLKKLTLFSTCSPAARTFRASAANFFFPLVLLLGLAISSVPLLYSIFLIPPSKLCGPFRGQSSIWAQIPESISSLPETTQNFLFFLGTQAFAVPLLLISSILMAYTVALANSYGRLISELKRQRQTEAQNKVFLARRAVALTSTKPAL
Description: In order to observe influence of a known salty taste enhancer on TMC4, the whole cell patch clamp assay (whole cell recording) was performed by using HEK293T cells expressing human TMC4 (hTMC4).
The whole cell patch clamp assay was performed in the same manner as in Example 2 except for the following:
1) HEK293T cells expressing human TMC4 (hTMC4) were used; and
2) a 134 mM NaCl solution was used as a vehicle solution, an extracellular fluid obtained by adding 100 μM arginine hydrochloride (Arg-HCl) as a salty taste enhancer to the vehicle solution, and an extracellular fluid (control not enhancing salty taste) obtained by adding 100 μM sucrose or maltose to the vehicle solution were used. A Cl^− current flowing via TMC4 was compared.
As for the hTMC4, a clone of Accession No. BC025323 was purchased from Dharmacon, and inserted between restriction enzyme EcoR1 site and Not1 site of the plasmid pIRES2-AcGFP1 to create an expression construct in the same manner as that for the mTMC4.

mouse TMC4 (mTMC4) = molecular target: T2, mouse TMC4 (mTMC4) (Mus musculus, UniProt Q7TQ65); assay: whole cell patch clamp assay using HEK293T cells expressing mTMC4; format: cell-based; details: 100 μM added to the 134 mM NaCl buffer, 25° C.
T2 construct: expressed in transfected cells; host or cells: HEK293T
T2 sequence (Q7TQ65 1-694): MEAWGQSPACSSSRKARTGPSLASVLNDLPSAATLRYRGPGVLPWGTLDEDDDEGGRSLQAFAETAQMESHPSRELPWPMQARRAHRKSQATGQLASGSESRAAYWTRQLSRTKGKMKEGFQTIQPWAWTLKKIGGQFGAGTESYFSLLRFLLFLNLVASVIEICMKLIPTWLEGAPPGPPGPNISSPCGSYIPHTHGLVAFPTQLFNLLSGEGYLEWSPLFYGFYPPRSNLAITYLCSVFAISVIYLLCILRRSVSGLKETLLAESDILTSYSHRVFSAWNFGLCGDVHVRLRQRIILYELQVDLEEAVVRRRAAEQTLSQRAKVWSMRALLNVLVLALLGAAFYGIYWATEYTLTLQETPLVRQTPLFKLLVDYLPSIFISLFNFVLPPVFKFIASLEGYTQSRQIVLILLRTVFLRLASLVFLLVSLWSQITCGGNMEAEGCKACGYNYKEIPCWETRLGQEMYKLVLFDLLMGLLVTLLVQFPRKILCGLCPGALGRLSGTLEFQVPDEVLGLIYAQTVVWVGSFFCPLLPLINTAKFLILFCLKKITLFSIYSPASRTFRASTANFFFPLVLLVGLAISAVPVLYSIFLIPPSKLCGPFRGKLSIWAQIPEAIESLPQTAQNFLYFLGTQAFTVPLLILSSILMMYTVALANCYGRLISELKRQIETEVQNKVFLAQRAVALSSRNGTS
Description: In order to check electrophysiological properties of TMC4, a whole cell patch clamp assay (whole cell recording) was performed using HEK293T cells expressing TMC4.
In order to express mouse TMC4 (mTMC4) in HEK293T cells, a plasmid vector pIRES2-AcGFP1 (Clontech Laboratories, Inc.) having a CMV promoter was used. An expression construct in which mTMC4 (sequence of Accession No. NM_181820.2 cloned from cDNA derived from mouse circumvallate papillae epithelium) was inserted between restriction enzyme EcoR1 site and Not1 site of pIRES2-AcGFP1 was transfected at a ratio of 1 μg/35 mm dish. As a transfection reagent, Lipofectamine™ LTX Reagent with PLUS & Reagent™ (Thermo Fisher Scientific K.K.) was used. […]
In the whole cell patch clamp recording using the HEK293T cells, Axopatch 200B (Molecular Devices, LLC.) was used as an amplifier, and digital data was obtained from Digidata 1550 (Axon Instruments, Union City, Calif., USA). The obtained data was analyzed using software pCLAMP 10.2 (Axon Instruments). […]
The measurement was performed with the membrane potential of mTMC4-expressing cells fixed at −60 mV with extracellular fluids successively perfused. A step pulse (400 ms) from −100 mV to +100 mV at intervals of 10 mV was applied to each extracellular fluid to create an I-V curve, and thus, voltage-current characteristics of mTMC4 obtained with different extracellular fluids were measured. […]

Row | Structure (SMILES) | Cl- current flowing via TMC4 (human TMC4 (hTMC4)) | outward Cl- current (mouse TMC4 (mTMC4))
1 | Cl.N=C(N)NCCC[C@H](N)C(=O)O [arginine hydrochloride] | increased | 
2 | O=C(O)c1cc([N+](=O)[O-])ccc1NCCCc1ccccc1 [NPPB, 5-Nitro-2-(3-phenylpropylamino) benzoic acid] |  | completely disappeared
3 | OC[C@H]1O[C@H](O[C@H]2[C@H](O)[C@@H](O)C(O)O[C@@H]2CO)[C@H](O)[C@@H](O)[C@@H]1O (mixture of isomers) [maltose] | did not change | 
4 | OC[C@H]1O[C@@](CO)(O[C@H]2O[C@H](CO)[C@@H](O)[C@H](O)[C@H]2O)[C@@H](O)[C@@H]1O [sucrose] | did not change | 
